In this experiment the test system is IL-2 production. Put plainly: Inhibition of IL-2 production in PHA-activated Jurkat cells (ELISA). To be noted: Homo sapiens. In kind it is cell-based. On the procedure:
Jurkat cells were placed in a 96 well plate (0.5 million cells per well in 1% FBS medium) then test compounds of this invention were added at different concentrations. After 10 minutes, the cells were activated with PHA (final concentration 2.5 μg/mL) and incubated for 20 hours at 37° C. under CO2. The final volume was 200 μL. Following incubation, the cells were centrifuged and the supernatants collected and stored at −70° C. prior to assaying for IL-2 production. A commercial ELISA kit (IL-2 Eli-pair, Diaclone Research, Besancon, France) was used to detect production of IL-2, from which dose response curves were obtained. The IC50 value was calculated as the concentration at which 50% of maximum IL-2 production after stimulation was inhibited versus a non-stimulation control.
On the technique in general: In an ELISA, binding on a coated surface is turned into a signal by an enzyme label.

The mark [1] stands for this setting: PHA 2.5 μg/mL, 20 hours, value bins.

By IC50 is commonly meant the midpoint of a concentration-inhibition curve. Regarding `O=C(Nc1ccc(-c2ccccc2C(F)(F)F)cc1)c1ccncc1F` [Compound 1, 3-Fluoro-N-(2′-trifluoromethyl-biphenyl-4-yl)-isonicotinamide], under setting [1], the IC50 was in the range of 0.1 to 0.5 µM.
Same read-out and setting: to `Cc1ccccc1-c1ccc(NC(=O)c2ccncc2F)cc1` [Compound 2, 3-Fluoro-N-(2′-methyl-biphenyl-4-yl)-isonicotinamide] belongs 0.1 to 0.5 µM.
In the case of `O=C(Nc1ccc(-c2cccc(C(F)(F)F)c2)cc1)c1ccncc1F` [Compound 3, 3-Fluoro-N-(3′-trifluoromethyl-biphenyl-4-yl)-isonicotinamide], for the setting “PHA, bin 500 nM-1 μM”, the IC50 is 0.5 to 1 µM.
Consider `O=C(Nc1ccc(-c2ccccc2C(F)(F)F)c(C(F)(F)F)c1)c1cccc(F)c1F` [Compound 4, N-(2,2′-Bis-trifluoromethyl-biphenyl-4-yl)-2,3-difluoro-benzamide], for which the IC50 (PHA, bin 500 nM-1 μM) lay in the range of 0.5 to 1 µM.
For `CN(C)C(=O)c1ccccc1-c1ccc(NC(=O)c2cccc(F)c2F)cc1` [Compound 6, 4′-(2,3-Difluoro-benzoylamino)-biphenyl-2-carboxylic acid dimethylamide], the IC50 (PHA, bin >1 μM) was greater than 1 µM.
Under “PHA, bin 500 nM-1 μM”, `O=C(Nc1ccc(-c2ccccc2C(F)(F)F)cc1)c1cccnc1` [Compound 7, N-(2′-Trifluoromethyl-biphenyl-4-yl)-nicotinamide] displayed an IC50 of 0.5 to 1 µM.
Take `O=C(Nc1ccc(-c2ccccc2C(F)(F)F)cc1)c1ccncc1` [Compound 8, N-(2′-Trifluoromethyl-biphenyl-4-yl)-isonicotinamide]: under setting [1], the 50% inhibitory concentration (IC50) is 0.1 to 0.5 µM.
Molecule `O=C(Nc1ccc(-c2ccccc2C(F)(F)F)cc1)c1cccs1` [Compound 9, Thiophene-2-carboxylic acid (2′-trifluoromethyl-biphenyl-4-yl)-amide] registered an IC50 (PHA, bin >1 μM) greater than 1 µM.
For the molecule `O=C(Nc1ccc(-c2ccccc2C(F)(F)F)cc1)c1ccc(F)cc1` [Compound 10, 4-Fluoro-N-(2′-trifluoromethyl-biphenyl-4-yl)-benzamide], the IC50 (PHA, bin >1 μM) was greater than 1 µM.
The same measure, in the same setting: as for `Cc1nc(C)c(C(=O)Nc2ccc(-c3ccccc3C(F)(F)F)cc2)s1` [Compound 11, 2,4-Dimethyl-thiazole-5-carboxylic acid (2′-trifluoromethyl-biphenyl-4-yl)-amide], the figure is greater than 1 µM.
As for `O=C(Nc1ccc(-c2ccccc2C(F)(F)F)cc1)c1cnccc1C(F)(F)F` [Compound 12, 4-Trifluoromethyl-N-(2′-trifluoromethyl-biphenyl-4-yl)-nicotinamide], under setting [1], the IC50 was 0.1 to 0.5 µM.
`Cc1nc(C(=O)Nc2ccc(-c3ccccc3C(F)(F)F)cc2)c(C(F)(F)F)o1` [Compound 13, 2-Methyl-5-trifluoromethyl-oxazole-4-carboxylic acid (2′-trifluoromethyl-biphenyl-4-yl)-amide] yielded an IC50 (PHA, bin >1 μM) greater than 1 µM.
On the same count and under the same terms, as for `CCn1nc(C)cc1C(=O)Nc1ccc(-c2ccccc2C(F)(F)F)cc1` [Compound 14, 2-Ethyl-5-methyl-2H-pyrazole-3-carboxylic acid (2′-trifluoromethyl-biphenyl-4-yl)-amide], the figure is greater than 1 µM.
Regarding `O=C(Nc1ccc(-c2ccccc2C(F)(F)F)cc1)c1cccc(F)c1F` [Compound 15, 2,3-Difluoro-N-(2′-trifluoromethyl-biphenyl-4-yl)-benzamide], under setting [1], the IC50 is 0.1 to 0.5 µM.
Molecule `O=C(Nc1ccc(-c2ccccc2C(F)(F)F)cc1)c1cc(F)ccc1F` [Compound 16, 2,5-Difluoro-N-(2′-trifluoromethyl-biphenyl-4-yl)-benzamide] yielded a half-inhibitory concentration (IC50) under setting [1] of 0.1 to 0.5 µM.
In the case of `O=C(Nc1ccc(-c2ccccc2C(F)(F)F)cc1F)c1cccc(F)c1F` [Compound 17, 2,3-Difluoro-N-(3-fluoro-2′-trifluoromethyl-biphenyl-4-yl)-benzamide], the IC50 (PHA, bin >1 μM) is greater than 1 µM.
As for `O=C(Nc1ccc(-c2cc(C(F)(F)F)ccc2C(F)(F)F)cc1)c1cccc(F)c1F` [Compound 18, N-(2′,5′-Bis-trifluoromethyl-biphenyl-4-yl)-2,3-difluoro-benzamide], the IC50 under setting [1] was less than 0.1 µM.
On the same count and under the same terms, to `O=C(Nc1ccc(-c2cc(C(F)(F)F)ccc2F)cc1)c1cccc(F)c1F` [Compound 19, 2,3-Difluoro-N-(2′-fluoro-5′-trifluoromethyl-biphenyl-4-yl)-benzamide] belongs 0.1 to 0.5 µM.
The same measure, in the same setting: as for `O=C(Nc1ccc(-c2ccc(F)cc2C(F)(F)F)cc1)c1cccc(F)c1F` [Compound 20, 2,3-Difluoro-N-(4′-fluoro-2′-trifluoromethyl-biphenyl-4-yl)-benzamide], the figure is less than 0.1 µM.
On the same count and under the same terms, to `O=C(Nc1ccc(-c2c(C(F)(F)F)cc3ccccn23)cc1)c1cccc(F)c1F` [Compound 21, 2,3-Difluoro-N-[4-(2-trifluoromethyl-indolizin-3-yl)-phenyl]-benzamide] belongs less than 0.1 µM; to `O=C(Nc1ccc(-c2c(F)cccc2C(F)(F)F)cc1)c1cccc(F)c1F` [Compound 22, 2,3-Difluoro-N-(2′-fluoro-6′-trifluoromethyl-biphenyl-4-yl)-benzamide], 0.1 to 0.5 µM.
`O=C(Nc1ccc(-c2ccccc2C(F)(F)F)cc1)c1ccccn1` [Compound 25, Pyridine-2-carboxylic acid (2′-trifluoromethyl-biphenyl-4-yl)-amide] showed an IC50 (PHA, bin >1 μM) greater than 1 µM.
The same measure, in the same setting: to `O=C(Nc1ccc(-c2ccccc2C(F)(F)F)cc1)c1cnccn1` [Compound 26, Pyrazine-2-carboxylic acid (2′-trifluoromethyl-biphenyl-4-yl)-amide] belongs greater than 1 µM.
On to `Cc1nnsc1C(=O)Nc1ccc(-c2cc(C(F)(F)F)ccc2Cl)cc1` [Compound 27, 4-Methyl-[1,2,3]thiadiazole-5-carboxylic acid (2′-chloro-5′-trifluoromethyl-biphenyl-4-yl)-amide], for which the IC50 under setting [1] is less than 0.1 µM.
Turning to `O=C(Nc1ccc(-c2cc(C(F)(F)F)ccc2C(F)(F)F)cc1)c1cc(F)ccc1F` [Compound 28, N-(2′,5′-Bis-trifluoromethyl-biphenyl-4-yl)-2,5-difluoro-benzamide], under setting [1], the IC50 was less than 0.1 µM.
As to `O=C(Nc1ccc(-n2c(C(F)(F)F)nnc2C(F)(F)F)cc1)c1cccc(F)c1F` [Compound 32, N-[4-(3,5-Bis-trifluoromethyl-[1,2,4]triazol-4-yl)-phenyl]-2,3-difluoro-benzamide], the half-maximal inhibitory concentration (IC50) under setting [1] was in the range of 0.1 to 0.5 µM.
On the same count and under the same terms, to `Cc1ccsc1C(=O)Nc1ccc(-n2c(C(F)(F)F)nnc2C(F)(F)F)cc1` [Compound 34, 3-Methyl-thiophene-2-carboxylic acid-(4-(3,5-bis-trifluoromethyl-[1,2,4]triazol-4-yl)-phenyl)-amide] belongs 0.1 to 0.5 µM.
On to `O=C(Nc1ccc(-n2c(-c3cccs3)nnc2C(F)(F)F)cc1)c1cccc(F)c1F` [Compound 35], for which the IC50 (PHA, bin 500 nM-1 μM) is 0.5 to 1 µM.
Molecule `N#Cc1cc(C(F)(F)F)cnc1-c1ccc(NC(=O)c2cccc(F)c2F)cc1` [Compound 37, N-[4-(3-cyano-5-trifluoromethyl-pyrid-2-yl)-phenyl]-2,3-difluoro-benzamide] showed an IC50 under setting [1] of 0.1 to 0.5 µM.
Same read-out and setting: to `COc1ccccc1C(=O)Nc1ccc(-c2cc(C(F)(F)F)ccc2C(F)(F)F)cc1` [Compound 38, N-(2′,5′-bis-trifluoromethyl-biphenyl-4-yl)-2-methoxy-benzamide] belongs 0.1 to 0.5 µM.
For `Cc1cc(C(=O)Nc2ccc(-c3cc(C(F)(F)F)ccc3C(F)(F)F)cc2)no1` [Compound 39, 5-Methyl-isoxazol-3-carboxylic acid (2′,5′-bis-trifluoromethyl-biphenyl-4-yl)-amide], under “PHA, bin 500 nM-1 μM”, the concentration for half-maximal inhibition (IC50) was in the range of 0.5 to 1 µM.
In turn, `Cc1cc(C(=O)Nc2ccc(-c3cc(C(F)(F)F)ccc3C(F)(F)F)cc2)n(C)n1` [Compound 40, 1,3-Dimethyl-1H-pyrazol-5-carboxylic acid (2′,5′-bis-trifluoromethyl-biphenyl-4-yl)-amide] displayed an IC50 under setting [1] of 0.1 to 0.5 µM.
On the same count and under the same terms, to `O=C(Nc1ccc(-c2cc(C(F)(F)F)ccc2C(F)(F)F)cc1)c1csnn1` [Compound 41, [1,2,3]-Thiadiazole-4-carboxylic acid (2′,5′-bis-trifluoromethyl-biphenyl-4-yl)-amide] belongs 0.1 to 0.5 µM; to `O=C(Nc1ccc(-c2cc(C(F)(F)F)ccc2C(F)(F)F)cc1)c1ccno1` [Compound 42, Isoxazole-5-carboxylic acid (2′,5′-bis-trifluoromethyl-biphenyl-4-yl)-amide], 0.1 to 0.5 µM.
For the molecule `Cc1noc(C)c1C(=O)Nc1ccc(-c2cc(C(F)(F)F)ccc2C(F)(F)F)cc1` [Compound 43, 3,5-dimethylisoxazole-4-carboxylic acid (2′,5′-bis-trifluoromethyl-biphenyl-4-yl)-amide], under setting [1], the IC50 is less than 0.1 µM.
On the same count and under the same terms, to `COc1ccc(Cl)cc1-c1ccc(NC(=O)c2cccc(F)c2F)cc1` [Compound 44, N-(2′-methoxy-5′-chloro-biphenyl-4-yl)-2,3-difluoro-benzamide] belongs less than 0.1 µM.
On the same count and under the same terms, as for `Cc1ccccc1C(=O)Nc1ccc(-c2cc(C(F)(F)F)ccc2C(F)(F)F)cc1` [Compound 45], the figure is less than 0.1 µM; as for `Cc1ccc(C)c(-c2ccc(NC(=O)c3cccc(F)c3F)cc2)c1` [Compound 47, N-(2′,5′-dimethyl-biphenyl-4-yl)-2,3-difluorobenzamide], less than 0.1 µM.
The molecule `O=C(Nc1ccc(-c2cc(C(F)(F)F)ccc2C(F)(F)F)cc1)c1ccccc1O` [Compound 49, N-(2′,5′-bis-trifluoromethyl-biphenyl-4-yl)-2-hydroxybenzamide] yielded an IC50 (PHA, bin 500 nM-1 μM) of 0.5 to 1 µM.
As for `COc1ccc(C(C)=O)cc1-c1ccc(NC(=O)c2cccc(F)c2F)cc1` [Compound 50, N-(2′-methoxy-5′-acetyl-biphenyl-4-yl)-2,3-difluorobenzamide], the IC50 under setting [1] was less than 0.1 µM.
The same measure, in the same setting: as for `Cc1oncc1C(=O)Nc1ccc(-c2cc(C(F)(F)F)ccc2C(F)(F)F)cc1` [Compound 51, 5-methylisoxazole-4-carboxylic acid (2′,5′-bis-trifluoromethyl-biphenyl-4-yl)-amide], the figure is 0.1 to 0.5 µM.

The record behind these values is US20050148633A1 (priority 2003, published 2005).
